The values below come from patent US20200246314A1, “DYSLIPIDEMIA THERAPEUTIC AGENT” (KOWA COMPANY, LTD., priority 2014, published 2020).

In the assay the test system is LDL-C in plasma. The assay is described as follows: Effect on LDL-C of rat in combination use of compound A and niacin. Type of assay: in vivo. The settings on record: male SD rats, oral once per day for one week, blood 4 h after final administration; single agent: compound A 0.1 mg/kg or nicotinic acid 100 mg/kg. From the text: Male rats (6-week-old, Jcl:SD, CLEA Japan, Inc.) were used for an experiment. Blood was collected from the jugular vein under satiation. The rats were divided into four groups (N=8) based on TG and TC in plasma and a body weight. For one week from the next day, each of a solvent (0.5% methylcellulose aqueous solution: MC), compound A alone, nicotinic acid alone, and combination of compound A and nicotinic acid was orally administered once per day. Four hours after final administration of the pharmaceutical agent, blood was collected under isoflurane anesthesia, and LDL-C in plasma was measured using high performance liquid chromatography by a method of Usui et al (Usui S et al. Clin Chem., 46, 63-72, 2000). Group 1: Control Group 2: 0.1 mg/kg of compound A […] Group 4: 0.1 mg/kg of compound A and 100 mg/kg of nicotinic acid Results were presented by an average value±standard deviation. Comparison between the control group and each of the pharmaceutical agent administration groups was performed by a multiple comparison test of Dunnett, and a risk rate of less than 5% was determined to have a significant difference.

As to `O=C(O)c1cccnc1` [nicotinic acid, pyridine-3-carboxylic acid], the “effect on LDL-C in plasma” value is recorded as “did not exhibit a clear effect on LDL-C”.

`CC[C@@H](Oc1cccc(CN(CCCOc2ccc(OC)cc2)c2nc3ccccc3o2)c1)C(=O)O` [Compound A, (R)-2-[3-[[N-(benzoxazol-2-yl)-N-3-(4-methoxyphenoxy)propyl]aminomethyl]phenoxy] butyric acid]: the “effect on LDL-C in plasma” value is “did not exhibit a clear effect on LDL-C”.
